Assay results reported in the supplement of paper PMC13380429.
± gives the standard deviation of the averaged measurements.

What was measured:
Conditions in all cases: 72 h
[1] = tested on: Calu-3; assay: cell viability relative to DMSO; higher = less toxic
[2] = tested on: U2OS; assay: as above
[3] = tested on: Vero E6; assay: as above
[4] = tested on: HepG2; assay: as above
[5] = tested on: Caco-2; assay: as above
[6] = tested on: Calu-3; assay: drug sensitivity score (DSS) for viability; higher = more toxic; extreme values may be limits of the assay
[7] = tested on: U2OS; assay: as above
[8] = tested on: Vero E6; assay: as above
[9] = tested on: HepG2; assay: as above
[10] = tested on: Caco-2; assay: as above
[11] = tested on: Calu-3; assay: relative viability EC50 (midpoint between 100% and the lowest measured viability); higher = less toxic
[12] = tested on: U2OS; assay: as above
[13] = tested on: Vero E6; assay: as above
[14] = tested on: HepG2; assay: as above
[15] = tested on: Caco-2; assay: as above

SMILES	cell viability ([1]; 1 nM) [%]	cell viability ([1]; 10 nM) [%]	cell viability ([1]; 100 nM) [%]	cell viability ([1]; 1000 nM) [%]	cell viability ([1]; 10000 nM) [%]	cell viability ([2]; 1 nM) [%]	cell viability ([2]; 10 nM) [%]	cell viability ([2]; 100 nM) [%]	cell viability ([2]; 1000 nM) [%]	cell viability ([2]; 10000 nM) [%]	cell viability ([3]; 1 nM) [%]	cell viability ([3]; 10 nM) [%]	cell viability ([3]; 100 nM) [%]	cell viability ([3]; 1000 nM) [%]	cell viability ([3]; 10000 nM) [%]	cell viability ([4]; 1 nM) [%]	cell viability ([4]; 10 nM) [%]	cell viability ([4]; 100 nM) [%]	cell viability ([4]; 1000 nM) [%]	cell viability ([4]; 10000 nM) [%]	cell viability ([5]; 1 nM) [%]	cell viability ([5]; 10 nM) [%]	cell viability ([5]; 100 nM) [%]	cell viability ([5]; 1000 nM) [%]	cell viability ([5]; 10000 nM) [%]	drug sensitivity score [6]	drug sensitivity score [7]	drug sensitivity score [8]	drug sensitivity score [9]	drug sensitivity score [10]	relative viability EC50 [11] [µM]	relative viability EC50 [12] [µM]	relative viability EC50 [13] [µM]	relative viability EC50 [14] [µM]	relative viability EC50 [15] [µM]
CC(C)N1Cc2cc(S(C)(=O)=O)ccc2N(CCN2CC=C(c3c[nH]c4cc(F)ccc34)CC2)S1(=O)=O	98.6	99.3	92.7	107	110	99.9	99.1	103	95.8	95.2	89.6	97.7	94.1	94.7	97.6	99.9	107	95.8	105	100	98.3	98.8	102	91.2	104	0	0	0	0	0	> 10	> 10	> 10	> 10	> 10
CC(C)n1cnc2c(C(=O)N[C@H]3CN4CCC3CC4)cc(Cl)cc21	93.9	101	84.9	92.9	90.6	104	103	97.1	105	97.8	100	95.8	97.5	94.9	100	116	102	104	98.2	97.6	106	106	94.4	101	94.9	0	0	0	0	0	> 10	> 10	> 10	> 10	> 10
CCOc1ccc(-c2ccc(Cn3c(CC(C)(C)C(=O)O)c(SC(C)(C)C)c4cc(OCc5ccc(C)cn5)ccc43)cc2)cn1	107	105	111	112	99.9	100	106	96.6	97.8	78.2	98.6	95.4	90.1	94	76.1	104	104	102	86.2	95.7	98.4	98.8	105	103	88.9	0	1	1.3	1	0	> 10	> 10	> 10	> 10	> 10
COc1ccc(-c2cc3c(C)nc(N)nc3n([C@H]3CC[C@H](OCCO)CC3)c2=O)cn1	85.3	87.3	56	19.6	10	100	95	89.1	32.6	3.8	94	98.4	74.4	30	17	104	103	77.5	28.7	20.1	92.5	89.9	67.1	27.7	23.4	20.8	14.2	16	15.9	17.2	0.0917	0.504	0.21	0.202	0.114
COc1ccccc1NC(=O)OCC1CCN(C(=O)OC(C)(C)C)CC1	108	102	94.5	109	108	96.8	99	94.4	99.1	94.7	97.4	102	99.8	99.2	95.2	111	108	100	94.5	104	89.2	96.2	101	97.9	97.9	0	0	0	0	0	> 10	> 10	> 10	> 10	> 10
C[C@H](NC(=O)Cc1cc(F)cc(F)c1)C(=O)N[C@@H]1C(=O)N(C)c2ccccc2-c2ccccc21	106	89.5	90.6	97	94.9	94.8	96.8	90.9	91.5	93.1	100	98.7	97.1	102	109	112	95.7	102	98.2	98.6	89.5	88.6	93.1	94.3	96.7	0	0	0	0	0	> 10	> 10	> 10	> 10	> 10
Cc1c(CC(C)(C)C(=O)O)n(Cc2ccc(Cl)cc2)c2ccc(F)cc12	104	102	96.1	95.9	88	98.7	99.4	103	96.4	99.7	98.3	97.5	95.2	101	108	97.2	109	93.7	112	110	91.9	106	98.5	97.6	99	0	0	0	0	0	> 10	> 10	> 10	> 10	> 10
N#Cc1ccc(-c2ccc(S(=O)(=O)Nc3cccc(N)n3)cc2)cc1	99.6	104	98.9	107	104	101	97.2	101	99.4	95.1	97.4	96.3	95.9	93.9	90.8	100	98.3	104	97.6	79	87.9	95.5	95.4	96.7	91	0	0	0	1	0	> 10	> 10	> 10	> 10	> 10
Nc1nc2ccc(Cl)cc2c2nc(-c3ccco3)nn12	109	92.8	96.9	98.5	84.9	102	100	103	97.7	98.3	96.1	97.6	94.2	100	85.9	91.5	104	87.7	33.5	23.2	100	91.6	104	88.1	76.7	0.4	0	0.2	13.8	2.2	> 10	> 10	> 10	0.297	> 10
O=C(O)c1cc2cccc([N+](=O)[O-])c2[nH]1	90.8	101	100	99.5	111	100	97.9	101	102	104	97.2	99.2	93.6	97.6	110	102	99.2	98.8	112	112	98	91.4	88.4	101	116	0	0	0	0	0	> 10	> 10	> 10	> 10	> 10
O=C(OCCN1CCCCC1)c1c[nH]c2ccccc12	106	104	97.7	103	91.3	96.8	104	97.6	102	94.3	98.7	95.6	95.4	95.8	104	102	93.8	98.2	106	94.4	99.3	97.2	95.3	96.3	99.4	0	0	0	0	0	> 10	> 10	> 10	> 10	> 10
O=C(O)[C@H]1CCCN(CCC=C(c2ccccc2)c2ccccc2)C1 (racemic)	96.8	98.5	111	90.9	111	98.6	98.2	98.1	102	91.3	99.6	100	101	102	103	107	94.5	83.9	108	99.2	95.9	98.7	102	95.7	94.9	0	0	0	0	0	> 10	> 10	> 10	> 10	> 10
CC(C)NC[C@@H](O)COc1ccc(CC(N)=O)cc1 (racemic) [atenolol-(+/-)]	94.2 ± 4.5	101 ± 11	96.5 ± 3.4	97.8 ± 2.3	102 ± 2.6	98.2 ± 3.5	96 ± 3	100.1 ± 0.28	97 ± 0.71	99.1 ± 3.7	103 ± 4.4	85.3 ± 10	105 ± 4.5	92.4 ± 13	97 ± 5.9	101 ± 10	92 ± 14	98.9 ± 9.5	96.2 ± 8.2	99.2 ± 18	99.8 ± 9.3	99 ± 11	105 ± 7	88.3 ± 0.99	92.1 ± 0.85	0	0	0.1 ± 0.14	0.05 ± 0.071	0.25 ± 0.35	> 10	> 10	> 10	> 10	> 10
